Data taken from patent US20190055576A1, “USE OF HERBICIDE-TOLERANT PROTEIN” (BEIJING DABEINONG TECHNOLOGY GROUP CO., LTD., priority 2016, published 2019).

Tests used:
[1] = tested on: wild-type soybean plants (CK1); test: Sulfometuron-methyl tolerance of wild-type soybean plants, damage degree; assay type: in vivo; settings: 120 g ai/ha
Excerpt: The herbicide tolerance effects of Gm cytoplasmic ALT-1-01 soybean plants, Gm chloroplastic ALT-1-01 soybean plants, Gm cytoplasmic ALT-2-01 soybean plants, Gm chloroplastic ALT-2-01 soybean plants, Gm cytoplasmic ALT-3-01 soybean plants, Gm chloroplastic ALT-3-01 soybean plants and wild-type soybean plants on Sulfometuron-methyl were detected (at seedling stage), respectively.
Gm cytoplasmic ALT-1-01 soybean plants, Gm chloroplastic ALT-1-01 soybean plants, Gm cytoplasmic ALT-2-01 soybean plants, Gm chloroplastic ALT-2-01 soybean plants, Gm cytoplasmic ALT-3-01 soybean plants, Gm chloroplastic ALT-3-01 soybean plants and wild-type soybean plants were respectively taken and sprayed with Sulfometuron-methyl (120 g ai/ha, 4-fold field concentration) and a blank solvent (water). The damage degree caused by the herbicide was measured for each plant according to the leaf curl degree and the growth point damage degree 3 days after spraying (3 DAT), 7 days after spraying (7 DAT), 14 days after spraying (14 DAT) and 21 days after spraying (21 DAT), respectively: considering conditions of leaves being flat as the untreated plants and growth points being intact as having a damage degree of 0%; considering conditions of veins being locally browned, new leaves being malformed and plant growth being slow as having a damage degree of 50%; and considering conditions of veins being purple to whole plant being dead and growth points being browned and dry as having a damage degree of 100%. There were 2 strains in Gm cytoplasmic ALT-1-01 soybean plants in total (S1 and S2), 2 strains in Gm chloroplastic ALT-1-01 soybean plants in total (S3 and S4), 2 strains in Gm cytoplasmic ALT-2-01 soybean plants in total (S5 and S6), 2 strains in Gm chloroplastic ALT-2-01 soybean plants in total (S7 and S8), 2 strains in Gm cytoplasmic ALT-3-01 soybean plants in total (S9 and S10), 2 strains in Gm chloroplastic ALT-3-01 soybean plants in total (S11 and S12), and 1 strain in wild-type soybean plants (CK1) in total; and 10-15 plants were selected from each strain and tested.

[2] = tested on: transgenic Arabidopsis thaliana T1 plants (ALT-1-01, ALT-2-01, ALT-3-01; cytoplasmic or chloroplastic); test: Herbicide tolerance of transgenic Arabidopsis thaliana T1 plants expressing thifensulfuron hydrolase, resistance classes counted after spraying; assay type: in vivo; settings: for Highly resistant (number of plants with growth status consistent with blank solvent group) / Moderately resistant (number of plants with bolting height less than 1/2 of blank solvent group) / Non-resistant (number of plants dead) / Poorly resistant (number of plants still not capable of bolting): 1-fold field concentration (g ai/ha: Sulfometuron-methyl 30, iodosulfuron-methyl 10, mesosulfuron 14, oxasulfuron 60), 14 days after spraying
Excerpt: T1 transformants were initially selected from the background of untransformed seeds using a glufosinate selection scheme. About 40000 T1 seeds were screened, and 380 T1 positive transformants (PAT gene) were identified with a transformation efficiency of about 0.95%. The plants that were transformed with the recombinant expression vector DBN100632 were Arabidopsis thaliana plants having an ALT-1-01 nucleotide sequence located in the cytoplasm introduced (At cytoplasmic ALT-1-01), and the plants that were transformed with the recombinant expression vector DBN100631 were Arabidopsis thaliana plants having an ALT-1-01 nucleotide sequence located in the chloroplast introduced (At chloroplastic ALT-1-01); the plants that were transformed with the recombinant expression vector DBN100634 were Arabidopsis thaliana plants having an ALT-2-01 nucleotide sequence located in the cytoplasm introduced (At cytoplasmic ALT-2-01), and the plants that were transformed with the recombinant expression vector DBN100633 were Arabidopsis thaliana plants having an ALT-2-01 nucleotide sequence located in the chloroplast introduced (At chloroplastic ALT-2-01); and the plants that were transformed with the recombinant expression vector DBN100636 were Arabidopsis thaliana plants having an ALT-3-01 nucleotide sequence located in the cytoplasm introduced (At cytoplasmic ALT-3-01), and the plants that were transformed with the recombinant expression vector DBN100635 were Arabidopsis thaliana plants having an ALT-3-01 nucleotide sequence located in the chloroplast introduced (At chloroplastic ALT-3-01). The herbicide tolerance effects of At cytoplasmic ALT-1-01 T1 plants, At chloroplastic ALT-1-01 T1 plants, At cytoplasmic ALT-2-01 T1 plants, At chloroplastic ALT-2-01 T1 plants, At cytoplasmic ALT-3-01 T1 plants, At chloroplastic ALT-3-01 T1 plants and wild-type Arabidopsis thaliana plants on Sulfometuron-methyl were detected (14 days after sowing), respectively.
At cytoplasmic ALT-1-01 T1 plants, At chloroplastic ALT-1-01 T1 plants, At cytoplasmic ALT-2-01 T1 plants, At chloroplastic ALT-2-01 T1 plants, At cytoplasmic ALT-3-01 T1 plants, At chloroplastic ALT-3-01 T1 plants and wild-type Arabidopsis thaliana plants were sprayed with Sulfometuron-methyl (30 g ai/ha, 1-fold field concentration) and a blank solvent (water), respectively. Plants were counted for the resistance situations 14 days after spraying: those having a consistent growth status with the blank solvent (water) group after 14 days were classified as highly resistant plants, those having a bolting height less than ½ of that of the blank solvent (water) group after 14 days were classified as moderately resistant plants, those still not capable of bolting after 14 days were classified as poorly resistant plants, and those dead after 14 days were classified as non-resistant plants. Since each Arabidopsis thaliana T1 plant was an independent transformation event, a significant difference in individual T1 responses could be expected at a given dose.
At cytoplasmic ALT-1-01 T1 plants, At chloroplastic ALT-1-01 T1 plants, At cytoplasmic ALT-2-01 T1 plants, At chloroplastic ALT-2-01 T1 plants, At cytoplasmic ALT-3-01 T1 plants, At chloroplastic ALT-3-01 T1 plants and wild-type Arabidopsis thaliana plants in Example 4 were sprayed with iodosulfuron-methyl (10 g ai/ha, 1-fold field concentration), mesosulfuron (14 g ai/ha, 1-fold field concentration) and oxasulfuron (60 g ai/ha, 1-fold field concentration), respectively, in addition to Sulfometuron-methyl (30 g ai/ha, 1-fold field concentration) and the blank solvent (water). […]

[3] = At chloroplastic ALT-1-01 T1 plants
[4] = At chloroplastic ALT-2-01 T1 plants
[5] = At chloroplastic ALT-3-01 T1 plants
[6] = At cytoplasmic ALT-1-01 T1 plants
[7] = At cytoplasmic ALT-2-01 T1 plants
[8] = At cytoplasmic ALT-3-01 T1 plants

COC(=O)c1ccccc1S(=O)(=O)NC(=O)Nc1nc(C)cc(C)n1 [Sulfometuron-methyl, 2-(4,6-dimethylpyrimidine-2-amino-formamido-sulfonyl) methyl benzoate]
Average damage % 3DAT ([1]; CK1 (wild-type soybean), 4-fold field concentration, 3 days after spraying): 49% | Average damage % 7DAT ([1]; CK1 (wild-type soybean), 4-fold field concentration, 7 days after spraying): 87% | Average damage % 14DAT ([1]; CK1 (wild-type soybean), 4-fold field concentration, 14 days after spraying): 100% | Average damage % 21DAT ([1]; CK1 (wild-type soybean), 4-fold field concentration, 21 days after spraying): 100% | herbicide tolerance of wild-type plants ([1]; wild-type soybean plants): not tolerant | Highly resistant (number of plants with growth status consistent with blank solvent group) [2, 3]: 27 | Moderately resistant (number of plants with bolting height less than 1/2 of blank solvent group) [2, 3]: 0 | Non-resistant (number of plants dead) [2, 3]: 1 | Poorly resistant (number of plants still not capable of bolting) [2, 3]: 0 | Highly resistant (number of plants with growth status consistent with blank solvent group) [2, 4]: 29 | Moderately resistant (number of plants with bolting height less than 1/2 of blank solvent group) [2, 4]: 0 | Non-resistant (number of plants dead) [2, 4]: 0 | Poorly resistant (number of plants still not capable of bolting) [2, 4]: 1 | Highly resistant (number of plants with growth status consistent with blank solvent group) [2, 5]: 27 | Moderately resistant (number of plants with bolting height less than 1/2 of blank solvent group) [2, 5]: 0 | Non-resistant (number of plants dead) [2, 5]: 1 | Poorly resistant (number of plants still not capable of bolting) [2, 5]: 0 | Highly resistant (number of plants with growth status consistent with blank solvent group) [2, 6]: 23 | Moderately resistant (number of plants with bolting height less than 1/2 of blank solvent group) [2, 6]: 2 | Non-resistant (number of plants dead) [2, 6]: 1 | Poorly resistant (number of plants still not capable of bolting) [2, 6]: 1 | Highly resistant (number of plants with growth status consistent with blank solvent group) [2, 7]: 24 | Moderately resistant (number of plants with bolting height less than 1/2 of blank solvent group) [2, 7]: 0 | Non-resistant (number of plants dead) [2, 7]: 3 | Poorly resistant (number of plants still not capable of bolting) [2, 7]: 2 | Highly resistant (number of plants with growth status consistent with blank solvent group) [2, 8]: 22 | Moderately resistant (number of plants with bolting height less than 1/2 of blank solvent group) [2, 8]: 1 | Non-resistant (number of plants dead) [2, 8]: 3 | Poorly resistant (number of plants still not capable of bolting) [2, 8]: 1 | herbicide tolerance conferred by the thifensulfuron hydrolase (ALT-1, ALT-2 and ALT-3) ([2]; transgenic Arabidopsis thaliana T1 plants, 30 g ai/ha): conferred Sulfometuron-methyl herbicide tolerance to individual Arabidopsis thaliana plants
